Assay: PAMPA assay, flux of capsaicin and osthole from buffer solutions with penetration enhancers (Experiments 1 and 2)
Format: in vitro ADME
Protocol: A. Preparation of Standards:
1 mg/mL stock solutions of polygodial, tetrahydropiperine (Cosmoperine™), osthole, dimethylisosorbide (DMI), Tazmanian Mountain Pepper (TMP), capsaicin and warfarin were prepared in methanol and stored at −20 ° C.
Prisma buffer preparation: Added 1.25 mL of Prisma™ HT buffer to 48.75 mL distilled water. Adjusted to pH 7.0 by adding 0.5 M NaOH dropwise.
50 μg/mL solutions of capsaicin, warfarin and osthole were prepared by adding 50 μL of the 1 mg/mL solutions to 950 μL of MeOH:H2O (50:50).
Donor Well Solutions: Experiment 1—Polygodial, Osthole and Capsaicin with DMI and THP
Preparation of Capsaicin Solutions:
5 μg/mL solution of capsaicin was prepared in Prisma™ buffer solution by adding 5 μL of 1 mg/mL solution of capsaicin to 0.995 mL Prisma™ buffer.
5 μg/mL of capsaicin+5 μg/mL solution of DMI was prepared in Prisma™ buffer solution by adding 5 μL of 1 mg/mL of DMI and 5 μL of 1 mg/mL of capsaicin solution to 0.990 mL Prisma™ buffer.
5 μg/mL of capsaicin+5 μg/mL solution of THP was prepared in Prisma™ buffer solution by adding 5 μL of 1 mg/mL of THP and 5 μL of 1 mg/mL of capsaicin solution to 0.990 mL Prisma™ buffer.
Preparation of Osthole Solutions:
5 μg/mL solution of osthole was prepared in Prisma™ buffer solution by adding 5 μL of 1 mg/mL solution of osthole to 0.995 mL Prisma™ buffer.
5 μg/mL of osthole+5 μg/mL solution of DMI was prepared in Prisma™ buffer solution by adding 5 μL of 1 mg/mL of DMI and 5 μL of 1 mg/mL of osthole solution to 0.990 mL Prisma™ buffer.
5 μg/mL of osthole+5 μg/mL solution of THP was prepared in Prisma™ buffer solution by adding 5 μL of 1 mg/mL of THP and 5 μL of 1 mg/mL of osthole solution to 0.990 mL Prisma™ buffer.
Donor Well Solutions: Experiment 2—Osthole and Capsaicin with Polygodial, TMP and THP
5 μg/mL solution of capsaicin was prepared in Prisma™ buffer solution by adding 5 μL of 1 mg/mL solution of capsaicin to 0.995 mL Prisma™ buffer. (Solution A)
5 μg/mL of capsaicin+5 μg/mL solution of polygodial was prepared in Prisma™ buffer solution by adding 5 μL of 1 mg/mL of polygodial and 5 μL of 1 mg/mL of capsaicin solution to 0.990 mL Prisma™ buffer. (Solution B)
5 μg/mL of capsaicin+5 μg/mL solution of TMP was prepared in Prisma™ buffer solution by adding 5 μL of 1 mg/mL of TMP and 5 μL of 1 mg/mL of capsaicin solution to 0.990 mL Prisma™ buffer. (Solution C)
5 μg/mL of capsaicin+5 μg/mL TMP+5 μg/mL solution of tetrahydropiperine was prepared in Prisma™ buffer solution by adding 5 μL of 1 mg/mL of TMP and 5 μL of 1 mg/mL tetrahydropiperine and 5 μL of 1 mg/mL of capsaicin solution to 0.985 mL Prisma™ buffer. (Solution D)
5 μg/mL of capsaicin+5 μg/mL solution of tetrahydropiperine was prepared in Prisma™ buffer solution by adding 5 μL of 1 mg/mL of tetrahydropiperine and 5 μL of 1 mg/mL of capsaicin solution to 0.990 mL Prisma™ buffer. (Solution E)
5 μg/mL solution of osthole was prepared in Prisma™ buffer solution by adding 5 μL of 1 mg/mL solution of osthole to 0.995 mL Prisma™ buffer. (Solution F)
5 μg/mL of osthole+5 μg/mL solution of polygodial was prepared in Prisma™ buffer solution by adding 5 μL of 1 mg/mL of polygodial and 5 μL of 1 mg/mL of osthole solution to 0.990 mL Prisma™ buffer. (Solution G)
5 μg/mL of osthole+5 μg/mL solution of TMP was prepared in Prisma™ buffer solution by adding 5 μL of 1 mg/mL of TMP and 5 μL of 1 mg/mL of osthole solution to 0.990 mL Prisma™ buffer. (Solution H)
5 μg/mL of osthole+5 μg/mL TMP+5 μg/mL solution of tetrahydropiperine was prepared in Prisma™ buffer solution by adding 5 μL of 1 mg/mL of TMP and 5 μL of 1 mg/mL tetrahydropiperine and 5 μL of 1 mg/mL of osthole solution to 0.985 mL Prisma™ buffer. (Solution I)
5 μg/mL of osthole+5 μg/mL solution of tetrahydropiperine was prepared in Prisma™ buffer solution by adding 5 μL of 1 mg/mL of tetrahydropiperine and 5 μL of 1 mg/mL of osthole solution to 0.990 mL Prisma™ buffer. (Solution J) […]

## CO[C@H]1CO[C@H]2[C@@H]1OC[C@H]2OC [DMI, Dimethyl Isosorbide]
Experiment 1, vs capsaicin alone over five hours
  effect of penetration enhancer on capsaicin flux in the PAMPA system: neither penetration enhancer demonstrated a statistically significant increase in capsaicin flux
Experiment 1, vs osthole alone over five hours
  effect of penetration enhancer on osthole flux in the PAMPA system: No observable enhancement

## COc1ccc2ccc(=O)oc2c1CC=C(C)C [osthole]
alone, donor 5 μg/mL, 2.0 hours
  concentration quantified in the acceptor well: 4 ng/mL
alone, donor 5 μg/mL, 2.5 hours
  concentration quantified in the acceptor well: 89 ng/mL
alone, donor 5 μg/mL, 5.0 hours
  concentration quantified in the acceptor well: 445 ng/mL
With equimass DMI (5 μg/mL), 2.0 hours
  concentration quantified in the acceptor well: 95 ng/mL
With equimass DMI (5 μg/mL), 2.5 hours
  concentration quantified in the acceptor well: 232 ng/mL
With equimass DMI (5 μg/mL), 5.0 hours
  concentration quantified in the acceptor well: 510 ng/mL
With equimass THP (5 μg/mL), 2.0 hours
  concentration quantified in the acceptor well: 261 ng/mL
With equimass THP (5 μg/mL), 2.5 hours
  concentration quantified in the acceptor well: 324 ng/mL
With equimass THP (5 μg/mL), 5.0 hours
  concentration quantified in the acceptor well: 549 ng/mL

## CC1(C)CCC[C@]2(C)[C@@H](C=O)C(C=O)=CC[C@@H]12 [polygodial]
PAMPA
  effect of natural penetration enhancer on capsaicin flux in the PAMPA system: appear to decreased the flux rate of capsaicin

Source: patent publication US10898537B2, “Transdermal formulations for delivery of capsaicinoids” (DELIVRA INC., priority 2015, dated 2021)
